Measured values as given in the supplement of paper PMC13380429.

What was measured:
Settings in all cases: 72 h
[1] = tested on: Caco-2; experiment: cell viability relative to DMSO; higher = less toxic
[2] = tested on: Calu-3; experiment: as above
[3] = tested on: HepG2; experiment: as above
[4] = tested on: U2OS; experiment: as above
[5] = tested on: Vero E6; experiment: as above
[6] = tested on: Calu-3; experiment: relative viability EC50 (midpoint between 100% and the lowest measured viability); higher = less toxic
[7] = tested on: HepG2; experiment: as above
[8] = tested on: U2OS; experiment: as above
[9] = tested on: Vero E6; experiment: as above
[10] = tested on: Caco-2; experiment: drug sensitivity score (DSS) for viability; higher = more toxic; extreme values may be limits of the assay
[11] = tested on: Calu-3; experiment: as above
[12] = tested on: HepG2; experiment: as above
[13] = tested on: U2OS; experiment: as above
[14] = tested on: Vero E6; experiment: as above
[15] = tested on: Caco-2; experiment: relative viability EC50 (midpoint between 100% and the lowest measured viability); higher = less toxic

## CCCc1cc(C(N)=S)ccn1 [protionamide]
[1]; 1 nM
  cell viability: 94.4%
[1]; 10 nM
  cell viability: 80.4%
[1]; 100 nM
  cell viability: 93.8%
[1]; 1000 nM
  cell viability: 73.7%
[1]; 10000 nM
  cell viability: 68.3%
[2]; 1 nM
  cell viability: 96.2%
[2]; 10 nM
  cell viability: 100%
[2]; 100 nM
  cell viability: 88.9%
[2]; 1000 nM
  cell viability: 107%
[2]; 10000 nM
  cell viability: 92.4%
[3]; 1 nM
  cell viability: 108%
[3]; 10 nM
  cell viability: 105%
[3]; 100 nM
  cell viability: 95.9%
[3]; 1000 nM
  cell viability: 103%
[3]; 10000 nM
  cell viability: 95.3%
[4]; 1 nM
  cell viability: 104%
[4]; 10 nM
  cell viability: 107%
[4]; 100 nM
  cell viability: 98.6%
[4]; 1000 nM
  cell viability: 96%
[4]; 10000 nM
  cell viability: 96.4%
[5]; 1 nM
  cell viability: 102%
[5]; 10 nM
  cell viability: 98.6%
[5]; 100 nM
  cell viability: 93.3%
[5]; 1000 nM
  cell viability: 101%
[5]; 10000 nM
  cell viability: 91.6%
[6]
  relative viability EC50: > 10 µM
[7]
  relative viability EC50: > 10 µM
[8]
  relative viability EC50: > 10 µM
[9]
  relative viability EC50: > 10 µM
[10]
  drug sensitivity score: 5.7
[11]
  drug sensitivity score: 0
[12]
  drug sensitivity score: 0
[13]
  drug sensitivity score: 0
[14]
  drug sensitivity score: 0

## COc1ccc(-c2ccc3ncc4c(c3c2)n(-c2ccc(N3CCNCC3)c(C(F)(F)F)c2)c(=O)n4C)cn1 [BGT226]
[1]; 1 nM
  cell viability: 88.6%
[1]; 10 nM
  cell viability: 69%
[1]; 100 nM
  cell viability: 35.8%
[1]; 1000 nM
  cell viability: 19.3%
[1]; 10000 nM
  cell viability: 0.6%
[2]; 1 nM
  cell viability: 110%
[2]; 10 nM
  cell viability: 58.3%
[2]; 100 nM
  cell viability: 29.6%
[2]; 1000 nM
  cell viability: 23.2%
[2]; 10000 nM
  cell viability: 0%
[3]; 1 nM
  cell viability: 110%
[3]; 10 nM
  cell viability: 91.5%
[3]; 100 nM
  cell viability: 50.8%
[3]; 1000 nM
  cell viability: 11.5%
[3]; 10000 nM
  cell viability: -0.3%
[4]; 1 nM
  cell viability: 101%
[4]; 10 nM
  cell viability: 74.2%
[4]; 100 nM
  cell viability: 22.8%
[4]; 1000 nM
  cell viability: 0.1%
[4]; 10000 nM
  cell viability: -0.2%
[5]; 1 nM
  cell viability: 98%
[5]; 10 nM
  cell viability: 93.9%
[5]; 100 nM
  cell viability: 52.2%
[5]; 1000 nM
  cell viability: 22.2%
[5]; 10000 nM
  cell viability: -0.2%
[15]
  relative viability EC50: 0.0397 µM
[6]
  relative viability EC50: 0.0321 µM
[7]
  relative viability EC50: 0.107 µM
[8]
  relative viability EC50: 0.0293 µM
[9]
  relative viability EC50: 0.14 µM
[10]
  drug sensitivity score: 26.8
[11]
  drug sensitivity score: 28.4
[12]
  drug sensitivity score: 22.8
[13]
  drug sensitivity score: 29.8
[14]
  drug sensitivity score: 21

## CCCC(C)C1(CC)C(=O)NC(=S)NC1=O (centres undefined) [thiopental]
[1]; 1 nM
  cell viability: 100%
[1]; 10 nM
  cell viability: 100%
[1]; 100 nM
  cell viability: 104%
[1]; 1000 nM
  cell viability: 96.4%
[1]; 10000 nM
  cell viability: 91%
[2]; 1 nM
  cell viability: 99.6%
[2]; 10 nM
  cell viability: 98.6%
[2]; 100 nM
  cell viability: 93.3%
[2]; 1000 nM
  cell viability: 102%
[2]; 10000 nM
  cell viability: 98.8%
[3]; 1 nM
  cell viability: 102%
[3]; 10 nM
  cell viability: 100%
[3]; 100 nM
  cell viability: 101%
[3]; 1000 nM
  cell viability: 90.5%
[3]; 10000 nM
  cell viability: 89.5%
[4]; 1 nM
  cell viability: 100%
[4]; 10 nM
  cell viability: 98.2%
[4]; 100 nM
  cell viability: 99.9%
[4]; 1000 nM
  cell viability: 101%
[4]; 10000 nM
  cell viability: 97.5%
[5]; 1 nM
  cell viability: 96.2%
[5]; 10 nM
  cell viability: 95.2%
[5]; 100 nM
  cell viability: 94%
[5]; 1000 nM
  cell viability: 95.7%
[5]; 10000 nM
  cell viability: 95.1%
[15]
  relative viability EC50: > 10 µM
[6]
  relative viability EC50: > 10 µM
[7]
  relative viability EC50: > 10 µM
[8]
  relative viability EC50: > 10 µM
[9]
  relative viability EC50: > 10 µM
[10]
  drug sensitivity score: 0
[11]
  drug sensitivity score: 0
[12]
  drug sensitivity score: 0.1
[13]
  drug sensitivity score: 0
[14]
  drug sensitivity score: 0

## CCCCCCC(=O)OC1CC(C)(C)NC(C)(C)C1 [TMPH]
[1]; 1 nM
  cell viability: 106%
[1]; 10 nM
  cell viability: 99.4%
[1]; 100 nM
  cell viability: 99.3%
[1]; 1000 nM
  cell viability: 103%
[1]; 10000 nM
  cell viability: 102%
[2]; 1 nM
  cell viability: 102%
[2]; 10 nM
  cell viability: 89.7%
[2]; 100 nM
  cell viability: 96%
[2]; 1000 nM
  cell viability: 108%
[2]; 10000 nM
  cell viability: 98.7%
[3]; 1 nM
  cell viability: 109%
[3]; 10 nM
  cell viability: 93.5%
[3]; 100 nM
  cell viability: 99.5%
[3]; 1000 nM
  cell viability: 92.9%
[3]; 10000 nM
  cell viability: 106%
[4]; 1 nM
  cell viability: 99.7%
[4]; 10 nM
  cell viability: 101%
[4]; 100 nM
  cell viability: 98.9%
[4]; 1000 nM
  cell viability: 99.6%
[4]; 10000 nM
  cell viability: 99.1%
[5]; 1 nM
  cell viability: 99%
[5]; 10 nM
  cell viability: 96.4%
[5]; 100 nM
  cell viability: 101%
[5]; 1000 nM
  cell viability: 95.2%
[5]; 10000 nM
  cell viability: 98.4%
[15]
  relative viability EC50: > 10 µM
[6]
  relative viability EC50: > 10 µM
[7]
  relative viability EC50: > 10 µM
[8]
  relative viability EC50: > 10 µM
[9]
  relative viability EC50: > 10 µM
[10]
  drug sensitivity score: 0
[11]
  drug sensitivity score: 0
[12]
  drug sensitivity score: 0
[13]
  drug sensitivity score: 0
[14]
  drug sensitivity score: 0

## NS(=O)(=O)Cc1noc2ccccc12 [zonisamide]
[1]; 1 nM
  cell viability: 84.9%
[1]; 10 nM
  cell viability: 97.9%
[1]; 100 nM
  cell viability: 96.1%
[1]; 1000 nM
  cell viability: 96.3%
[1]; 10000 nM
  cell viability: 106%
[2]; 1 nM
  cell viability: 95.1%
[2]; 10 nM
  cell viability: 97.9%
[2]; 100 nM
  cell viability: 100%
[2]; 1000 nM
  cell viability: 115%
[2]; 10000 nM
  cell viability: 88.1%
[3]; 1 nM
  cell viability: 110%
[3]; 10 nM
  cell viability: 102%
[3]; 100 nM
  cell viability: 98.2%
[3]; 1000 nM
  cell viability: 94.5%
[3]; 10000 nM
  cell viability: 102%
[4]; 1 nM
  cell viability: 94.1%
[4]; 10 nM
  cell viability: 93.9%
[4]; 100 nM
  cell viability: 92.4%
[4]; 1000 nM
  cell viability: 98.4%
[4]; 10000 nM
  cell viability: 102%
[5]; 1 nM
  cell viability: 101%
[5]; 10 nM
  cell viability: 93.3%
[5]; 100 nM
  cell viability: 98.5%
[5]; 1000 nM
  cell viability: 93.8%
[5]; 10000 nM
  cell viability: 106%
[15]
  relative viability EC50: > 10 µM
[6]
  relative viability EC50: > 10 µM
[7]
  relative viability EC50: > 10 µM
[8]
  relative viability EC50: > 10 µM
[9]
  relative viability EC50: > 10 µM
[10]
  drug sensitivity score: 0
[11]
  drug sensitivity score: 0
[12]
  drug sensitivity score: 0
[13]
  drug sensitivity score: 0
[14]
  drug sensitivity score: 0

## Oc1c(I)cc(I)cc1I [AM-24]
[1]; 1 nM
  cell viability: 99.5%
[1]; 10 nM
  cell viability: 97.6%
[1]; 100 nM
  cell viability: 93%
[1]; 1000 nM
  cell viability: 88.5%
[1]; 10000 nM
  cell viability: 101%
[2]; 1 nM
  cell viability: 96.7%
[2]; 10 nM
  cell viability: 95%
[2]; 100 nM
  cell viability: 104%
[2]; 1000 nM
  cell viability: 97.3%
[2]; 10000 nM
  cell viability: 101%
[3]; 1 nM
  cell viability: 95.4%
[3]; 10 nM
  cell viability: 103%
[3]; 100 nM
  cell viability: 89.9%
[3]; 1000 nM
  cell viability: 108%
[3]; 10000 nM
  cell viability: 102%
[4]; 1 nM
  cell viability: 97.8%
[4]; 10 nM
  cell viability: 97.8%
[4]; 100 nM
  cell viability: 103%
[4]; 1000 nM
  cell viability: 97.7%
[4]; 10000 nM
  cell viability: 104%
[5]; 1 nM
  cell viability: 96.8%
[5]; 10 nM
  cell viability: 103%
[5]; 100 nM
  cell viability: 99.6%
[5]; 1000 nM
  cell viability: 104%
[5]; 10000 nM
  cell viability: 97.2%
[15]
  relative viability EC50: > 10 µM
[6]
  relative viability EC50: > 10 µM
[7]
  relative viability EC50: > 10 µM
[8]
  relative viability EC50: > 10 µM
[9]
  relative viability EC50: > 10 µM
[10]
  drug sensitivity score: 0
[11]
  drug sensitivity score: 0
[12]
  drug sensitivity score: 0
[13]
  drug sensitivity score: 0
[14]
  drug sensitivity score: 0

## CC/C=C\C/C=C\C/C=C\C/C=C\C/C=C\C/C=C\CCC(=O)OCC [doconexent-ethyl-ester]
[1]; 1 nM
  cell viability: 96.9%
[1]; 10 nM
  cell viability: 108%
[1]; 100 nM
  cell viability: 96.1%
[1]; 1000 nM
  cell viability: 96.5%
[1]; 10000 nM
  cell viability: 100%
[2]; 1 nM
  cell viability: 99.1%
[2]; 10 nM
  cell viability: 104%
[2]; 100 nM
  cell viability: 104%
[2]; 1000 nM
  cell viability: 103%
[2]; 10000 nM
  cell viability: 108%
[3]; 1 nM
  cell viability: 100%
[3]; 10 nM
  cell viability: 98.9%
[3]; 100 nM
  cell viability: 87.1%
[3]; 1000 nM
  cell viability: 107%
[3]; 10000 nM
  cell viability: 87.2%
[4]; 1 nM
  cell viability: 93.6%
[4]; 10 nM
  cell viability: 96.9%
[4]; 100 nM
  cell viability: 97.3%
[4]; 1000 nM
  cell viability: 103%
[4]; 10000 nM
  cell viability: 99.8%
[5]; 1 nM
  cell viability: 99.5%
[5]; 10 nM
  cell viability: 101%
[5]; 100 nM
  cell viability: 98.9%
[5]; 1000 nM
  cell viability: 102%
[5]; 10000 nM
  cell viability: 102%
[15]
  relative viability EC50: > 10 µM
[6]
  relative viability EC50: > 10 µM
[7]
  relative viability EC50: > 10 µM
[8]
  relative viability EC50: > 10 µM
[9]
  relative viability EC50: > 10 µM
[10]
  drug sensitivity score: 0
[11]
  drug sensitivity score: 0
[12]
  drug sensitivity score: 0
[13]
  drug sensitivity score: 0
[14]
  drug sensitivity score: 0
